Assays:
[1] = animal model of anxiety; details: in vivo
[2] = target: T1, mGluR3 (Homo sapiens, UniProt Q14832); experiment: [3H] LY341495 binding at mGluR3; set-up: expressed in transfected cells; details: Example 1: average result from several tests, read-out: Ki, reversal of [3H] LY341495 binding at mGluR3
Description: (D. D. Schoepp, et al., Neuropharmacol., 1996, 35, 1661-1672 and 1997, 36, 1-11).

[3] = target: T1, mGluR3; experiment: decrease of forskolin-stimulated cAMP in cells expressing mGluR3
Description: The ability of compounds to function as agonists of glutamate at metabotropic glutamate receptors may be determined by measuring their ability to decrease forskolin-stimulated cAMP in cells expressing mGluR receptors.

T1 sequence (Q14832 23-879): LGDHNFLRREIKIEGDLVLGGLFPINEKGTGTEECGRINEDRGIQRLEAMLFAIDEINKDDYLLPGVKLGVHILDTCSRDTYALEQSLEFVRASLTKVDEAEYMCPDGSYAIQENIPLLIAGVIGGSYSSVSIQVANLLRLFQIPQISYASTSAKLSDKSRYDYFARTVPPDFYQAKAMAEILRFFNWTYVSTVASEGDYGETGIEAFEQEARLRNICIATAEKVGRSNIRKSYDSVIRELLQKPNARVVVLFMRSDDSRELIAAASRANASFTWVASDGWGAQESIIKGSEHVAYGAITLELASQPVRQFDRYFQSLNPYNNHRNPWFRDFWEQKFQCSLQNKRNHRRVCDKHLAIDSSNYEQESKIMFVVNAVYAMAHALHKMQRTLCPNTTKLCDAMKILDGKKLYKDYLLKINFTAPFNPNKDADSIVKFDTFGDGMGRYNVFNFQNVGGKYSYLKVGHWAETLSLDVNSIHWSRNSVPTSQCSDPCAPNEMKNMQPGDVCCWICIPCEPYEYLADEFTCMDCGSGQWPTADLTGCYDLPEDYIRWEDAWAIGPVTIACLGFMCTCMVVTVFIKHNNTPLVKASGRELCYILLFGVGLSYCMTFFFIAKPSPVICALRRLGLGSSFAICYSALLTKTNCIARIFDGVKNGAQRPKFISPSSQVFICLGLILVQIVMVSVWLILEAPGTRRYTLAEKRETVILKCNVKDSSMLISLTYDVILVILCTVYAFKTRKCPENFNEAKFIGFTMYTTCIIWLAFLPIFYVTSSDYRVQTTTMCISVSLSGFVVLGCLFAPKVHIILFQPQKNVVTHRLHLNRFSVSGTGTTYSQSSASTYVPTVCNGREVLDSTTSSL

Structure (SMILES)	potency in an animal model of anxiety [1]	Ki [2] [nM]	EC50 [3] [nM]	melting point [°C]
N[C@H](C(=O)O)[C@H]1[C@@H](CO)[C@@H]1C(=O)O (racemic) [Example 1, (2SR,1′SR,2′RS,3′RS)-2-(3′-hydroxymethyl-2′-carboxycyclopropyl)glycine]	highly potent	7.9	11.5	–
N[C@H](C(=O)O)[C@H]1[C@@H](CS)[C@@H]1C(=O)O (racemic) [Example 3, (2SR,1′RS,2′RS,3′RS)-2-[3′-mercaptomethyl-2′-carboxycyclopropyl]glycine]	–	–	–	200 to 202
N[C@H](C(=O)O)[C@H]1[C@@H](CSc2ccccc2)[C@@H]1C(=O)O (racemic) [Example 8, (2SR,1′RS,2′RS,3′RS)-2-[3′-(phenylthiomethyl)-2′-carboxycyclopropyl]glycine]	–	–	–	201
N[C@H](C(=O)O)[C@H]1[C@@H](CO)[C@@H]1C(=O)O (single isomer, unassigned) [Example 22]	–	5.1	–	–

Reference: US6498180B1, “Excitatory amino acid receptor modulators” (Eli Lilly and Company, priority 1999, dated 2002)
